Results taken from patent US20240309090A1, “MODULATION OF ANDROGEN SIGNALING TO INNATE IMMUNE KILLING OF PROSTATE CANCER” (Brown University, priority 2023, published 2024).

Key:
Type in all cases: cell-based
PC3 cell line = assay: Flow cytometry of HLA-E surface expression on AR-negative PC3; conditions: non-AR-transduced PC3
From the text: (§1) To evaluate the modulation of the androgen receptor and tumor HLA-E expression, we astably transduced AR negative cell lines PC3 and DU145 with an Androgen Response Element (ARE) GFP reporter (FIG. 16H). […] Using AR+ constructed cell lines, PC3 and DU145, we sought to determine the dependence of HLA-E expression and possible modulation by AR. […] Although potential therapies targeting immune enhancement are being explored, the expression of exhaustion markers such as PD-1, NKG2A, and potential engaging ligands that diminish their cytotoxic function limits their application. Exploring these factors with new combination approaches, such as ARi and anti-NKG2A, and understanding the modulation of its targets upon treatment is key in overcoming immune-resistant scenarios, especially in prostate cancer.
Experiments were conducted with noncytotoxic doses of vorinostat (0.3 μM) and panobinostat (3 nM).
(§2) PCa cells were plated at a density of 3×10^5 cells per well of a 6-well plate and adhered overnight. […] After treatment, cells were trypsinized, stained, and incubated (Cell Staining Buffer SouthernBiotech #0225-01S) with the corresponding antibody for 45-60 min at 4° C. Viability dye was added with each run. NK-92 cells and patient-derived cells were stained similarly. Markers used for experiments included: Thermofisher HLA-E Monoclonal Antibody (3D12HLA-E), Alexa Fluor™ 488, eBioscience™, CD274 (PD-L1, B7-H1) Monoclonal Antibody (MIH1), eFluor™ 450, eBioscience™, Cell Signaling PD-1 (D4W2J) XPR Rabbit mAb, SYTOX™ Orange Dead Cell Stain, for flow cytometry, BioLegend APC anti-human CD159a (NKG2A) Antibody #375108, BioLegend APC anti-human CD69 Antibody #310909, BioLegend Alexa Fluor® 647 anti-human CD137 (4-1BB) [4B4-1] #309823. For staining of the patient-derived PBMCs and subsequent NK cell characterization, the following antibodies were used: BioLegend Anti-Perforin Mouse Monoclonal Antibody (PerCP Cy5.50, clone: dG9) #308113, BioLegend Anti-Granzyme B Mouse Monoclonal Antibody (FITC, clone: GB11) #515403, BioLegend Anti-CD56 Mouse Monoclonal Antibody (Alexa Fluor® 700, clone: 5.1H1) #362521, and BioLegend (PE anti-human CD45 Antibody) #304008.

[1] = test system: AR-transduced PC3-AR and DU145 cell lines; assay: Flow cytometry of HLA-E surface expression on AR-transduced PC3 and DU145
From the text: as §1
(§3) PCa cells were plated at a density of 3×10^5 cells per well of a 6-well plate and adhered overnight. […] After treatment, cells were trypsinized, stained, and incubated (Cell Staining Buffer SouthernBiotech #0225-01S) with the corresponding antibody for 45-60 min at 4° C. Viability dye was added with each run. NK-92 cells and patient-derived cells were stained similarly. […]

DU145 [2] = assay: Flow cytometry of HLA-E surface expression on non-AR-transduced DU145
From the text: as §1, §3

NK-92 cells [3] = assay: Flow cytometry of NK-92 activation markers CD69 and CD137; conditions: NK-92 monoculture, 48 h
Method: The surface expression of the NK cell activation markers CD69 and CD137 were also evaluated following the treatment of NK cell monocultures with ARi (FIG. 13D-E).
as §2

22Rv1 = assay: Co-culture of 22Rv1 with NK-92 cells, immune-mediated tumor cell killing
Method: (§4) They were co-treated with enzalutamide ([…]) or darolutamide (20 μM) for 48 h. Doses of AR inhibitors (ARi) used in the co-culture experiments were based on previous IC50 experiments. […] The immune-mediated effect of NK-92 on the PCa cell lines in the presence of enzalutamide (immune enhancement death) was normalized to baseline immune and tumor cell killing in each condition [(tumor cells+immune cells)-tumor baseline death=baseline immune death]. […] Cytokine analysis was performed to investigate the activation phenotype of NK cells when treated with ARi.
(§5) Prostate cancer cell lines were dyed with the blue CMAC live-cell dye (Thermo Fisher Scientific #C2110, per manufacturer protocol). Blue-fluorescent cancer cells were plated at a density of 10,000 cells per well of a 48-well plate. NK-92 cells were dyed with green CMFDA (Cayman Chemical Company #19583, per manufacturer protocol). Green-fluorescent NK-92 cells were added to the blue-fluorescent cancer cells at a 1:1 ratio. Enzalutamide (10 μM), darolutamide (20 μM), and 1 μM ethidium homodimer (EthD-1) were added at the same time as the NK cells. After 24 hours of co-culture, images of live cancer cells, live NK cells, and dead cells were taken using a fluorescent microscope. The co-culture experiments were run with internal control conditions and as a single treatment. Normalization was performed after analysis to take baseline death conditions into each experiment run. […] Cell adhered over 24 h, and when patient-derived NK cells were added, a control well was trypsinized, and cells resuspended and counted to adjust a 1:1 ratio before treatment addition. […]
(§6) Live cancer cells, NK cells, and dead cells were quantified using FIJI (Fiji Is Just ImageJ) software for images derived from fluorescent co-culture images. Images from the ImageXpress system were quantified using MetaXpress cytoplasmic/nuclear staining software. The percent of dead tumor cells in each well was quantified, and this percentage was normalized by subtracting baseline death from cancer cell-only wells, NK cell-only wells, or both.

NK-92 cells [4] = assay: NK cell viability assay (CellTiterGlo); conditions: NK cells alone, doses used in co-culture
Method: For NK cell viability assays, 5×10^3 cells were plated in a 96-well plate, and viability (72h) was measured using a CellTiterGlo assay.

PC3 = assay: Co-culture of PC3 with NK-92 cells, immune-mediated tumor cell killing; conditions: PC3 + NK-92 1:1, 24 hours
Method: as §4
(§7) Prostate cancer cell lines were dyed with the blue CMAC live-cell dye (Thermo Fisher Scientific #C2110, per manufacturer protocol). […] Cell adhered over 24 h, and when patient-derived NK cells were added, a control well was trypsinized, and cells resuspended and counted to adjust a 1:1 ratio before treatment addition. […]
as §6

DU145 [5] = assay: Co-culture of DU145 with NK-92 cells, immune-mediated tumor cell killing; conditions: DU145 + NK-92 1:1, 24 hours
Method: as §4, §7, §6

LNCaP = assay: Co-culture of LNCaP with NK-92 cells, immune-mediated tumor cell killing
Method: as §4, §5, §6

CC(O)c1cc(C(=O)N[C@@H](C)Cn2ccc(-c3ccc(C#N)c(Cl)c3)n2)n[nH]1 (stereo partly drawn) [darolutamide]
HLA-E expression (PC3 cell line): 15.47% | HLA-E surface expression upon ARi ([1]; AR-responsive PC3-AR): increased | HLA-E surface expression upon ARi ([1]; AR-transduced (AR-responsive) DU145): increased | HLA-E expression (DU145 [2]): 1.23% | expression of CD69 (NK-92 cells [3]): 88.63% | expression of CD137 (NK-92 cells [3]): 64.87%

CNC(=O)c1ccc(N2C(=S)N(c3ccc(C#N)c(C(F)(F)F)c3)C(=O)C2(C)C)cc1F [enzalutamide]
cell death rate (NK cell-mediated tumor killing) (22Rv1; 22Rv1 + NK-92 1:1, 24 hours): 52.67±8.96% | NK cell killing of PCa cells (immune enhancement) (22Rv1; 22Rv1 + NK-92 1:1, enzalutamide 10 μM, FIG. 15B): 34.84% | NK cell viability (NK-92 cells [4]): noncytotoxic | cell death rate (NK cell-mediated tumor killing) (PC3): 11.05±4.6% | cell death rate (NK cell-mediated tumor killing) (DU145 [5]): 34.8±4.92% | cell death rate (NK cell-mediated tumor killing) (LNCaP; LNCaP + NK-92 1:1, 24 hours): 48.3% | NK cell killing of PCa cells (immune enhancement) (LNCaP; LNCaP + NK-92 1:1, enzalutamide 10 μM, FIG. 15A): 35.32% | expression of CD69 (NK-92 cells [3]): 87.4% | expression of CD137 (NK-92 cells [3]): 61.54%
